Measured values: US9994617B2, “Modulation of structured polypeptide specificity” (BICYCLE THERAPEUTICS LIMITED, priority 2011, dated 2018)
Numbered stars: 1 amine (or outer) side, 2 acyl side, 3 side chain; on linkers, the order of the positions; unused ones are H or OH. Bridge positions count the residues as written; N and C are the ends. Square brackets hold non-standard residues; d marks the D form. Peptide text beside a SMILES is read from it. NMeW = CN[C@@H](Cc1c[nH]c2ccccc12)C(=O)O; TBMB = c1c(C[*:1])cc(C[*:3])cc1C[*:2]

How the values were obtained:
Human thrombin = Human thrombin (Homo sapiens, UniProt P00734); assay: Inhibition of paralogous protease thrombin; type: biochemical
Experimental: (§1) The target specificity of the isolated bicyclic peptide inhibitors was assessed by determining the inhibition of trypsin-like human serine proteases of the class S1A which comprises 79 members (Yousef, et al, Biochem Biophys Res Commun 2003, 305 (1), 28-36). The panel of proteases included hfXIa which shares the highest sequence identity with hPK (69%) as well as the structurally less related but vital human serine proteases thrombin (36%), plasmin (34% sequence identity with hPK) and factor XIIa (35%).

[1] = target: T1, Human factor XIIa (hfXIIa) (Homo sapiens, UniProt P00748); assay: Inhibition of paralogous protease factor XIIa; type: biochemical
T1 sequence (P00748 373-615 limits assumed): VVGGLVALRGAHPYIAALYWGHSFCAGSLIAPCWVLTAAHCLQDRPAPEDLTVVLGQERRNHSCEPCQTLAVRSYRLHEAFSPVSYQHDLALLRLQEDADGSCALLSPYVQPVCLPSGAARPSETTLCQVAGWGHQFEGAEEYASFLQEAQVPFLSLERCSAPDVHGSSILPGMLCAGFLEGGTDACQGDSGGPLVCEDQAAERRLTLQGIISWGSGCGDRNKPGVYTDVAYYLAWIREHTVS
Experimental: as §1

[2] = target: human plasma kallikrein (hPK) (Homo sapiens, UniProt P03952); assay: Enzyme inhibition assay, human plasma kallikrein

Compound | IC50 (Human thrombin) | IC50 [1] | Ki [2] | fold reduction in affinity to kallikrein compared to wildtype peptide ([2]; versus Ac-06-34-18(TMB)-NH2)
C[C@H](N)C(=O)N[C@H]1CSCc2cc3cc(c2)CSC[C@H](NC(=O)[C@H](CCCNC(=N)N)NC(=O)[C@H](C)NC(=O)[C@@H]2CCCN2C(=O)[C@H](Cc2c[nH]c4ccccc24)NC(=O)[C@H]([C@@H](C)O)NC1=O)C(=O)N[C@@H]([C@@H](C)O)C(=O)N[C@@H](Cc1c[nH]cn1)C(=O)N[C@@H](CCC(N)=O)C(=O)N[C@@H](CC(N)=O)C(=O)N[C@@H](Cc1c[nH]c2ccccc12)C(=O)N[C@H](C(=O)N[C@@H](C)C(N)=O)CSC3 [Peptide 06-09] (H-ACTWPARCTHQNWCA-NH2; linker 2-8-14 via TBMB) | > 10000 nM | > 10000 nM | 1.2 nM | 
CC(C)[C@@H]1NC(=O)[C@H](CCCNC(=N)N)NC(=O)[C@@H]2CSCc3cc(cc(c3)CSC[C@@H](C(=O)N[C@@H](C)C(N)=O)NC(=O)[C@H](C)NC1=O)CSC[C@H](NC(=O)[C@H](C)N)C(=O)N[C@@H](Cc1ccccc1)C(=O)N[C@@H](CCCCN)C(=O)N[C@@H](Cc1c[nH]cn1)C(=O)N2 [Peptide 3B8] (H-ACFKHCRVACA-NH2; linker 2-6-10 via TBMB) | > 10000 nM |  | 0.95 nM | 
CSCC[C@@H]1NC(=O)[C@H](CCC(=O)O)NC(=O)[C@H](CCC(N)=O)NC(=O)[C@H](Cc2c[nH]cn2)NC(=O)[C@H]([C@@H](C)O)NC(=O)[C@@H]2CSCc3cc(cc(c3)CSC[C@@H](C(=O)N[C@@H](C)C(N)=O)NC1=O)CSC[C@H](NC(=O)[C@H](C)N)C(=O)NCC(=O)N[C@@H](C(C)C)C(=O)N1CCC[C@H]1C(=O)N[C@@H](Cc1ccc(O)cc1)C(=O)N[C@@H](CCCNC(=N)N)C(=O)N2 [06-64 T] (H-ACGVPYRCTHQEMCA-NH2; linker 2-8-14 via TBMB) | > 10000 nM | > 10000 nM | 6.9 nM | 
CC(C)[C@@H]1NC(=O)[C@H](CCCNC(=N)N)NC(=O)[C@@H]2CSCc3cc(cc(c3)CSC[C@@H](C(=O)N[C@@H](C)C(N)=O)NC(=O)[C@H](CC(N)=O)NC1=O)CSC[C@H](NC(=O)[C@H](C)N)C(=O)N[C@@H](Cc1ccccc1)C(=O)N[C@@H](CCCCN)C(=O)N[C@@H](CCC(N)=O)C(=O)N2 [Peptide 06-94] (H-ACFKQCRVNCA-NH2; linker 2-6-10 via TBMB) | > 10000 nM |  | 0.7 nM | 
CC(C)C[C@@H]1NC(=O)[C@@H]2CSCc3cc(cc(c3)CSC[C@@H](C(=O)N[C@@H](C)C(N)=O)NC(=O)[C@@H]3CCCN3C(=O)[C@H](CCCNC(=N)N)NC(=O)[C@H](CCCNC(=N)N)NC(=O)[C@H](Cc3ccccc3)NC1=O)CSC[C@H](NC(=O)[C@H](C)N)C(=O)N[C@@H](C)C(=O)N[C@@H](CC(=O)O)C(=O)N1CCC[C@H]1C(=O)N[C@@H](Cc1c[nH]c3ccccc13)C(=O)N[C@@H](C)C(=O)N2 [06-63 T] (H-ACADPWACLFRRPCA-NH2; linker 2-8-14 via TBMB) | > 10000 nM | > 10000 nM | 1280 nM | 
CC(C)C[C@@H]1NC(=O)[C@@H]2CSCc3cc(cc(c3)CSC[C@@H](C(=O)N[C@@H](C)C(N)=O)NC(=O)[C@H](Cc3ccc(O)cc3)NC(=O)[C@H](CC(=O)O)NC(=O)[C@H](CCC(N)=O)NC(=O)[C@H](Cc3c[nH]cn3)NC1=O)CSC[C@H](NC(=O)[C@H](C)N)C(=O)N[C@@H](CO)C(=O)N[C@@H](Cc1c[nH]c3ccccc13)C(=O)N1CCC[C@H]1C(=O)N[C@@H](Cc1ccc(O)cc1)C(=O)N[C@@H](CCCNC(=N)N)C(=O)N2 [Peptide 06-61] (H-ACSWPYRCLHQDYCA-NH2; linker 2-8-14 via TBMB) | > 10000 nM | > 10000 nM | 5.8 nM | 
CC(=O)N[C@H]1CSCc2cc3cc(c2)CSC[C@H](NC(=O)[C@H](CCCNC(=N)N)NC(=O)[C@H](C)NC(=O)[C@@H]2CCCN2C(=O)[C@H](Cc2c[nH]c4ccccc24)N(C)C(=O)[C@H](CO)NC1=O)C(=O)N[C@@H](CC(C)C)C(=O)N[C@@H](Cc1c[nH]cn1)C(=O)N[C@@H](CCC(N)=O)C(=O)N[C@@H](CC(=O)O)C(=O)N[C@@H](CC(C)C)C(=O)N[C@H](C(N)=O)CSC3 [Ac-(06-34-18) NMeTrp2] (Ac-CS[NMeW]PARCLHQDLC-NH2; linker 1-7-13 via TBMB) |  |  | 228 nM | 
CC(C)C[C@@H]1NC(=O)[C@H](CO)NC(=O)[C@H]([C@@H](C)O)NC(=O)[C@H]([C@@H](C)O)NC(=O)[C@H](CC(C)C)NC(=O)[C@@H]2CSCc3cc(cc(c3)CSC[C@@H](C(=O)N[C@@H](C)C(N)=O)NC1=O)CSC[C@H](NC(=O)[C@H](C)N)C(=O)N[C@@H](CCCNC(=N)N)C(=O)N[C@@H](Cc1c[nH]c3ccccc13)C(=O)N1CCC[C@H]1C(=O)N[C@@H](C)C(=O)N[C@@H](CCCNC(=N)N)C(=O)N2 [Peptide 06-59] (H-ACRWPARCLTTSLCA-NH2; linker 2-8-14 via TBMB) | > 10000 nM | > 10000 nM | 0.5 nM | 
CC(C)C[C@@H]1NC(=O)[C@H](CCC(=O)O)NC(=O)[C@H](CCCNC(=N)N)NC(=O)[C@H]([C@@H](C)O)NC(=O)[C@H](CC(C)C)NC(=O)[C@@H]2CSCc3cc(cc(c3)CSC[C@@H](C(=O)N[C@@H](C)C(N)=O)NC1=O)CSC[C@H](NC(=O)[C@H](C)N)C(=O)N[C@@H](C)C(=O)N[C@@H](Cc1c[nH]c3ccccc13)C(=O)N1CCC[C@H]1C(=O)N[C@@H](C)C(=O)N[C@@H](CCCCN)C(=O)N2 [Peptide 1B1] (H-ACAWPAKCLTRELCA-NH2; linker 2-8-14 via TBMB) |  |  | 8.1 nM | 
CC(=O)N[C@H]1CSCc2cc3cc(c2)CSC[C@H](NC(=O)[C@H](CCCNC(=N)N)NC(=O)[C@H](CO)NC(=O)[C@H](Cc2c[nH]c4ccccc24)NC(=O)[C@@H]2CCCN2C(=O)[C@H](C)NC1=O)C(=O)N[C@@H](CC(C)C)C(=O)N[C@@H](Cc1c[nH]cn1)C(=O)N[C@@H](CCC(N)=O)C(=O)N[C@@H](CC(=O)O)C(=O)N[C@@H](CC(C)C)C(=O)N[C@H](C(N)=O)CSC3 [Ac-(06-34-18) Scram3] (Ac-CAPWSRCLHQDLC-NH2; linker 1-7-13 via TBMB) |  |  | 1890 nM | 
CC(=O)N[C@H]1CSCc2cc3cc(c2)CSC[C@H](NC(=O)[C@H](Cc2ccc(NC(=N)N)cc2)NC(=O)[C@H](C)NC(=O)[C@@H]2CCCN2C(=O)[C@H](Cc2c[nH]c4ccccc24)NC(=O)[C@H](CO)NC1=O)C(=O)N[C@@H](CC(C)C)C(=O)N[C@@H](Cc1c[nH]cn1)C(=O)N[C@@H](CCC(N)=O)C(=O)N[C@@H](CC(=O)O)C(=O)N[C@@H](CC(C)C)C(=O)N[C@H](C(N)=O)CSC3 [Ac-(06-34-18) 4GuanPhe5] |  |  | 0.3 nM | 2 fold
CC(=O)N[C@H]1CSCc2cc3cc(c2)CSC[C@H](NC(=O)[C@H](CCCNC(=N)N)NC(=O)[C@H](Cc2c[nH]c4ccccc24)NC(=O)[C@H](C)NC(=O)[C@H](CO)NC(=O)[C@@H]2CCCN2C1=O)C(=O)N[C@@H](CC(C)C)C(=O)N[C@@H](Cc1c[nH]cn1)C(=O)N[C@@H](CCC(N)=O)C(=O)N[C@@H](CC(=O)O)C(=O)N[C@@H](CC(C)C)C(=O)N[C@H](C(N)=O)CSC3 [Ac-(06-34-18) Scram1] (Ac-CPSAWRCLHQDLC-NH2; linker 1-7-13 via TBMB) |  |  | 1090 nM | 
CSCC[C@@H]1NC(=O)[C@H]([C@@H](C)O)NC(=O)[C@@H]2CSCc3cc(cc(c3)CSC[C@@H](C(=O)N[C@@H](C)C(N)=O)NC(=O)[C@H](Cc3c[nH]c4ccccc34)NC(=O)[C@H](CC(N)=O)NC(=O)[C@H](CCC(N)=O)NC1=O)CSC[C@H](NC(=O)[C@H](C)N)C(=O)N[C@@H]([C@@H](C)O)C(=O)N[C@@H](Cc1c[nH]c3ccccc13)C(=O)N1CCC[C@H]1C(=O)N[C@@H](C)C(=O)N[C@@H](CCCNC(=N)N)C(=O)N2 [06-A2*] (H-ACTWPARCTMQNWCA-NH2; linker 2-8-14 via TBMB) |  | > 10000 nM | 181 nM | 
CC(C)C[C@@H]1NC(=O)[C@@H]2CSCc3cc(cc(c3)CSC[C@@H](C(=O)N[C@@H](C)C(N)=O)NC(=O)[C@H](CC(C)C)NC(=O)[C@H](CC(=O)O)NC(=O)[C@H]([C@@H](C)O)NC(=O)[C@H](Cc3c[nH]cn3)NC1=O)CSC[C@H](NC(=O)[C@H](C)N)C(=O)N[C@@H](CC(N)=O)C(=O)N[C@@H](Cc1c[nH]c3ccccc13)C(=O)N1CCC[C@H]1C(=O)N[C@@H](Cc1ccc(O)cc1)C(=O)N[C@@H](CCCNC(=N)N)C(=O)N2 [Peptide 06-157] (H-ACNWPYRCLHTDLCA-NH2; linker 2-8-14 via TBMB) | > 10000 nM | > 10000 nM | 3.3 nM | 
CC(=O)N[C@H]1CSCc2cc3cc(c2)CSC[C@H](NC(=O)[C@H](CCNC(=N)N)NC(=O)[C@H](C)NC(=O)[C@@H]2CCCN2C(=O)[C@H](Cc2c[nH]c4ccccc24)NC(=O)[C@H](CO)NC1=O)C(=O)N[C@@H](CC(C)C)C(=O)N[C@@H](Cc1c[nH]cn1)C(=O)N[C@@H](CCC(N)=O)C(=O)N[C@@H](CC(=O)O)C(=O)N[C@@H](CC(C)C)C(=O)N[C@H](C(N)=O)CSC3 [Ac-(06-34-18) Agb5] |  |  | 83 nM | 
CC(=O)N[C@H]1CSCc2cc3cc(c2)CSC[C@H](NC(=O)[C@H](CCCNC(=N)N)NC(=O)[C@H](C)NC(=O)[C@H](C)NC(=O)[C@H](C)NC(=O)[C@H](CO)NC1=O)C(=O)N[C@@H](CC(C)C)C(=O)N[C@@H](Cc1c[nH]cn1)C(=O)N[C@@H](CCC(N)=O)C(=O)N[C@@H](CC(=O)O)C(=O)N[C@@H](CC(C)C)C(=O)N[C@H](C(N)=O)CSC3 [Ac-(06-34-18) A2A3] (Ac-CSAAARCLHQDLC-NH2; linker 1-7-13 via TBMB) |  |  | 18500 nM | 
